Columns and labels:
human A1AR = human A1AR (Homo sapiens (Human), UniProt P30542); assay: Binding assay to the human A1AR ([3H]R-PIA); settings: [3H]R-PIA (2.0 nM), CHO cells, Table 2; for Ki: read-out: Ki(hA1AR); for inhibition at 10 µM: 1 h, read-out: hA1AR % displ. at 10 μM
Protocol: (§1) CHO (Chinese hamster ovary) cells expressing the recombinant human ARs (HEK-293 cells were used for the human A2AAR) were cultured in DMEM and F12 (1:1) supplemented with 10% fetal bovine serum, 100 units/ml penicillin, […] streptomycin and 2 μmol/ml glutamine. Cells were harvested by trypsinization. After homogenization and suspension, cells were centrifuged at 500 g for 10 min, and the pellet was re-suspended in 50 mM Tris.HCl buffer (pH 7.4) containing 10 mM MgCl2. The suspension was homogenized with an electric homogenizer for 10 sec, and was then re-centrifuged at 20,000 g for 20 min at 4° C. The resultant pellets were resuspended in buffer in the presence of 3 Units/mL adenosine deaminase, and the suspension was stored at −80° C. until the binding experiments. The protein concentration was measured using the Bradford assay.
(§2) For binding to the human A1AR, [^3H]R-PIA (2 nM) was incubated with membranes (40 μg/tube) from CHO cells stably expressing the human A1AR at 25° C. for 60 min in 50 mM Tris.HCl buffer (pH 7.4; MgCl2, 10 mM) in a total assay volume of 200 μL. Nonspecific binding was determined using 10 μM of N^6-cyclopentyladenosine. For human A2A AR binding, membranes (20 μg/tube) from HEK-293 cells stably expressing the human A2A AR were incubated with 15 nM [^3H]CGS21680 at 25° C. for 60 min in 200 μL of 50 mM Tris.HCl, pH 7.4, containing 10 mM MgCl2. N-5′-ethyluronamidoadenosine (10 μM) was used to define nonspecific binding. Reaction was terminated by filtration with GF/B filters.

human A2A AR = human A2A AR (Homo sapiens (Human), UniProt P29274); assay: Binding assay to the human A2A AR ([3H]CGS21680); settings: [3H]CGS 21680 (15 nM), HEK293 cells, Table 2; for Ki: read-out: Ki(hA2AAR)
Protocol: as §1, §2

hA2BAR = hA2BAR (Homo sapiens (Human), UniProt P29275); assay: Effect on NECA-induced cyclic AMP accumulation at A2B receptor; also: NECA (150 nM)-induced cyclic AMP accumulation; assay type: cell-based; settings: read-out: hA2BAR % inhib. at 10 μM
human A3AR = human A3AR (Homo sapiens (Human), UniProt P0DMS8); assay: Competitive binding assay to the human A3AR ([125I]I-AB-MECA); settings: for inhibition at 10 µM: 1 h, read-out: hA3AR % displ. at 10 μM; for inhibition at 10 µM / Ki: [125I]I-AB-MECA (0.5 nM), CHO cells, Table 2; for Ki: read-out: Ki(hA3AR); for affinity to orthosteric versus allosteric binding sites (selective affinity): orthosteric sites of A1, A2A, A2B, A3 receptors vs allosteric site of A3 adenosine receptor
Protocol: as §1
Each tube in the competitive binding assay contained 100 μl membrane suspension (20 μg protein), 50 μl [^125I]-AB-MECA (0.5 nM), and 50 μl of increasing concentrations of the test ligands in Tris.HCl buffer (50 mM, pH 8.0) containing 10 mM MgCl2, 1 mM EDTA. Nonspecific binding was determined using 10 μM of 5′-N-ethylcarboxamidoadenosine in the buffer. The mixtures were incubated at 25° C. for 60 min. Binding reactions were terminated by filtration through Whatman GF/B filters under reduced pressure using a MT-24 cell harvester (Brandell, Gaithersburgh, Md., USA). Filters were washed three times with 9 mL ice-cold buffer. Radioactivity was determined in a Beckman 5500B γ-counter.

human A3ARs [1] = molecular target: T1, human A3ARs (Homo sapiens (Human), UniProt P0DMS8); assay: Dissociation kinetics of [125I]I-AB-MECA from human A3ARs; assay type: binding; settings: 0.5 h, % decrease of dissociation at 30 min, residual binding of [125I]AB-MECA after 30 min = 100%, Table 2, read-out: hA3AR Ag. Dissociation at 10 μM
Protocol: The dissociation of [^125I]I-AB-MECA was measured as follows. Membranes (20 μg) were preincubated at 25° C. with 0.5 nM [^125I]I-AB-MECA, in a total volume of 100 μl of Tris-HCl buffer (50 mM, pH 8.0) containing 10 mM MgCl2, and 1 mM EDTA for 60 min. The dissociation was then initiated by the addition of 3 μM Cl-IB-MECA with or without allosteric modulators. The time course of dissociation of total binding was measured by rapid filtration at appropriate time intervals. Nonspecific binding was measured after 60-min incubation in the presence of 3 μM Cl-IB-MECA. Further assay was as described above.

human A3ARs [2] = molecular target: T1, human A3ARs; assay: Cyclic AMP accumulation assay, efficacy at hA3AR; assay type: cell-based; settings: compared to maximal effect by 2-Cl-IB-MECA alone (control = 100%)
Protocol: Intracellular cyclic AMP levels were measured with a competitive protein binding method (Nordstedt and Fredholm, 1990). CHO cells that expressed recombinant human A3ARs were harvested by trypsinization. After centrifugation and resuspension in medium, cells were plated in 24-well plates in 0.5 ml medium. After 24 hr, the medium was removed and cells were washed three times with 1 ml DMEM, containing 50 mM HEPES, pH 7.4. Cells were then treated with agonists and/or test compounds in the presence of rolipram (10 μM) and adenosine deaminase (3 units/ml). After 45 min forskolin (10 μM) was added to the medium, and incubation was continued an additional 15 min. The reaction was terminated by removing the supernatant, and cells were lysed upon the addition of 200 μL of 0.1 M ice-cold HCl. The cell lysate was resuspended and stored at −20° C. For determination of cyclic AMP production, protein kinase A (PKA) was incubated with [^3H]cyclic AMP (2 nM) in K2HPO4/EDTA buffer (K2HPO4, 150 mM; EDTA, 10 mM), 20 μL of the cell lysate, and 30 μL 0.1 M HCl or 50 μL of cyclic AMP solution (0-16 pmol/200 μL for standard curve). Bound radioactivity was separated by rapid filtration through Whatman GF/C filters and washed once with cold buffer. Bound radioactivity was measured by liquid scintillation spectrometry.

human A2A AR, sequence (P29274 whole entry): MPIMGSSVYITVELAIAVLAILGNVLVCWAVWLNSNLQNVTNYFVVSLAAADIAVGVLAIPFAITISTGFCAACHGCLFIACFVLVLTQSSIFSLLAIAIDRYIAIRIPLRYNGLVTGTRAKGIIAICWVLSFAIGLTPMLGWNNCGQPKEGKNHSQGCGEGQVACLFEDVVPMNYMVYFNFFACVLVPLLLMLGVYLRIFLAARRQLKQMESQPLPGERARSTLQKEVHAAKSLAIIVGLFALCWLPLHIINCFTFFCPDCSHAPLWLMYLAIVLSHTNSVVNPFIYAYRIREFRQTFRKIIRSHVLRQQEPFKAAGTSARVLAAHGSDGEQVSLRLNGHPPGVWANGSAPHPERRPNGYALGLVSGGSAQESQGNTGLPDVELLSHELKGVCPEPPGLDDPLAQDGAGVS
hA2BAR, sequence (P29275 whole entry): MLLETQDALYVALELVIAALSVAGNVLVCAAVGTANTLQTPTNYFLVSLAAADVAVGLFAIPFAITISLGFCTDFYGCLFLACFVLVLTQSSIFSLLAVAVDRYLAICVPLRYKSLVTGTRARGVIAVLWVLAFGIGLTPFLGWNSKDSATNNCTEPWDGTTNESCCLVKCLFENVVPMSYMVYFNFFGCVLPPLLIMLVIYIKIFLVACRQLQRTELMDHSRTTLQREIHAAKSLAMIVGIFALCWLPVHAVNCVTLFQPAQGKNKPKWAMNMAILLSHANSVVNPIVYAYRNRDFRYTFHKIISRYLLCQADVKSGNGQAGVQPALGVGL
T1 sequence (P0DMS8 whole entry): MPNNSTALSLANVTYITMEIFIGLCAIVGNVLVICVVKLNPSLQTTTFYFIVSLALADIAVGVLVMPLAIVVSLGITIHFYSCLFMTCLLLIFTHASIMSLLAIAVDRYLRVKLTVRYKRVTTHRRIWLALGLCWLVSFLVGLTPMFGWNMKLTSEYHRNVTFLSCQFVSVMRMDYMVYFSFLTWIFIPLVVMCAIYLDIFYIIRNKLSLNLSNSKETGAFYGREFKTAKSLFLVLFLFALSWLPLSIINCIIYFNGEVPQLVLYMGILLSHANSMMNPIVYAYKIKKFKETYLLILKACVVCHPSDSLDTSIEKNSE
human A3AR, sequence (P0DMS8 whole entry): as above
human A1AR, sequence (P30542 whole entry): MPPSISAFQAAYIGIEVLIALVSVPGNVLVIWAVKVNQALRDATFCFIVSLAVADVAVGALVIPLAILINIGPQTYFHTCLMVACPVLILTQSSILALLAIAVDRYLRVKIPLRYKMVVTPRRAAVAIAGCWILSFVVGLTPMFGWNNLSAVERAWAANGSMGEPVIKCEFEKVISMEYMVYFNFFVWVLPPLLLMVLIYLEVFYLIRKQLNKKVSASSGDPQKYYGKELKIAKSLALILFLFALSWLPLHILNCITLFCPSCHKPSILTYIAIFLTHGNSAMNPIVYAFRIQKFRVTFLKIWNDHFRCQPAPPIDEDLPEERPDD

Row | SMILES | Ki (human A1AR) [µM] | hA2AAR % displ. at 10 μM (human A2A AR) | Ki (human A2A AR) [µM] | inhibition at 10 µM (hA2BAR) [%] | inhibition at 10 µM (human A3AR) [%] | Ki (human A3AR) [µM] | activity at 10 µM (human A3ARs [1]) [%] | % Increase of efficacy at hA3AR at 10 μM (human A3ARs [2]) [%] | melting point [°C] | affinity to orthosteric versus allosteric binding sites (selective affinity) (human A3AR) | inhibition at 10 µM (human A1AR) [%]
1 | COc1ccc(Nc2nc3ccccc3c3[nH]c(C4CCCC4)nc23)cc1 [Compound 32, N-(4-Methoxy-phenyl)-2-cyclopentyl-1H-imidazo[4,5-c]quinolin-4-amine] | 4.17 ± 0.73 | (16%) | > 10 | 7.3 | 92 | 0.41 ± 0.064 | 166 ± 11 | 132 ± 4 | 106 to 107 | – | –
2 | c1ccc(Nc2nc3ccccc3c3[nH]c(C4CCCC4)nc23)cc1 [Compound 30, N-Phenyl-2-cyclopentyl-1H-imidazo[4,5-c]quinolin-4-amine, reference compound] | 3.42 ± 0.23 | – | 3.15 ± 0.21 | -6.8 | 90 | 0.786 ± 0.067 | 174 ± 5 | 138 ± 8 | – | non-specific affinity | –
3 | Clc1ccc(Nc2nc3ccccc3c3[nH]c(C4CCCC4)nc23)cc1 [Compound 34, N-(4-Chloro-phenyl)-2-cyclopentyl-1H-imidazo[4,5-c]quinolin-4-amine] | > 10 | (17%) | > 10 | -10.2 | 82 | 1.61 ± 0.55 | 159 ± 5 | 136 ± 3 | 189 to 190 | – | 22
4 | Clc1ccc(Nc2nc3ccccc3c3[nH]c(-c4ccco4)nc23)cc1Cl [Compound 43] | – | 70% | – | 9 | 78 | – | 98 ± 3 | 95 ± 4 | 135 to 138 | – | -4
5 | Clc1ccc(Nc2nc3ccccc3c3[nH]c(C4CCCCCC4)nc23)cc1Cl [Compound 42, N-(3,4-Dichloro-phenyl)-2-cycloheptyl-1H-imidazo[4,5-c]quinolin-4-amine] | – | −2% | – | -7.3 | 68 | – | 130 ± 2 | 115 ± 7 | 236 to 238 | selective affinity | -4
6 | Clc1ccc(Nc2nc3ccccc3c3[nH]c(C4CCC4)nc23)cc1Cl [Compound 44, N-(3,4-Dichloro-phenyl)-2-cyclobutyl-1H-imidazo[4,5-c]quinolin-4-amine] | – | 0.4% | – | -5.5 | 52 | – | – | 126 ± 3 | 131 to 134 | – | -5
7 | COc1ccc(CNc2nc3ccccc3c3[nH]c(C4CCCC4)nc23)cc1 [Compound 38, N-(4-Methoxy-benzyl)-2-cyclopentyl-1H-imidazo[4,5-c]quinolin-4-amine] | – | 60% | – | 0.3 | 80 | – | 101 ± 13 | 109 ± 3 | 245 to 247 | – | 59
8 | c1ccc2c(c1)nc(Nc1ccc3c(c1)CCC3)c1nc(C3CCCC3)[nH]c12 [Compound 36, N-([3,4-c]Indan)-2-cyclopentyl-1H-imidazo[4,5-c]quinolin-4-amine] | – | 8% | – | -10.7 | 69 | – | 108 ± 4 | 111 ± 5 | 142 to 145 | – | 21
9 | OCc1cccc(Nc2nc3ccccc3c3[nH]c(C4CCCC4)nc23)c1 [Compound 35, N-(3-Methanol-phenyl)-2-cyclopentyl-1H-imidazo[4,5-c]quinolin-4-amine] | – | 49% | – | -4.1 | 56 | – | 129 ± 15 | 118 ± 4 | 228 to 230 | – | 51
10 | c1ccc(CNc2nc3ccccc3c3[nH]c(C4CCCC4)nc23)cc1 [Compound 40, N-(Benzyl)-2-cyclopentyl-1H-imidazo[4,5-c]quinolin-4-amine] | – | 77% | – | -3.4 | 86 | – | 145 ± 10 | 147 ± 8 | – | – | 28
11 | Cc1ccc(Nc2nc3ccccc3c3[nH]c(C4CCCC4)nc23)cc1 [Compound 31, N-(4-Methyl-phenyl)-2-cyclopentyl-1H-imidazo[4,5-c]quinolin-4-amine] | – | – | 5.22 ± 0.32 | -4.1 | 87 | 1.19 ± 0.107 | 153 ± 4 | 128 ± 4 | 125 to 126 | – | –
